Test results reported in patent publication US20250241109A1, “Electron Transporting Self-Assembling Monolayer Compound for Use in Optoelectronic and/or Photoelectrochemical Devices and Manufacture Thereof” (Kaunas University of Technology, priority 2024, published 2025).
Read-outs that look alike come from different tables or passages of the source.

Legend:
Format in all cases: physicochemical
[1] = UV/vis absorption and transmittance spectra
Source text: In the n-i-p structure PSC light first posses through the ETL, thus it is important to minimize parasitic absorption of this layer.

[2] = Contact potential difference (CPD) surface mapping on ITO
Source text: The surface mapping of contact potential difference (CPD) values of V1264 on ITO confirmed uniformity of SAM coverage. The rather homogenous pattern was proportional to the narrow work function (WF) fluctuation in a specific area (˜4.45 eV), overall indicating a good V1264 coverage on ITO.

[3] = Thermogravimetric analysis (TGA); conditions: scan rate 10 K min^−1, nitrogen atmosphere
Method: TGA was performed on a Q50 thermogravimetric analyzer (TA Instruments) at a scan rate of 10 K min^−1 in the nitrogen atmosphere.

[4] = Water contact angle of ITO/SAM surface; conditions: coated onto ITO, washed to remove unbound molecules
Source text: It is noted that all the samples were washed with respective solvents to remove unbounded SAM molecules from the ITO substrate. […] The higher hydrophobicity of ITO/SAM substrate will affect the crystallization and morphology of perovskite film.^[21,22] The more hydrophobic surface (less wetting) of ITO/NDI-SAM surface can suppress the dragging force of perovskite inks, resulting in larger grain-size perovskite crystals, as indicated from top-view scanning electron microscopy (SEM) images in FIG. 6a,b.^[21,22] In addition, the tertbutyl groups of V1264 on the upper side can interact well with the perovskite layer, resulting in less pinholes or voids formed at ITO/V1264/perovskite interface, see FIG. 7.

[5] = Cyclic voltammetry and optical band gap: energy levels in DMF and DCM solution; conditions: for EHOMO: EHOMO=ELUMO+Eg opt; for ELUMO: calculated from E vs Fc/Fc^+ with conversion factors; for λ: edge of electronic absorption spectrum in solution; for E vs Fc/Fc^+: glassy carbon electrode, 0.1 M tetrabutylammonium hexafluorophosphate, calibrated with ferrocene; for Eg^opt-sol: optical band gap, Eg opt=1240/λ
Method: CV measurements were carried out by a three-electrode assembly cell from Bio-Logic SP-150. The measurements were carried out at a glassy carbon electrode in DMF and DCM solutions containing 0.1 M tetrabutylammonium hexafluorophosphate as an electrolyte, Pt as the counter electrode and as the reference electrode. Each measurement was calibrated with ferrocene (Fc) and potentials calculated to Fc^+/Fc. Conversion factors: ferrocene in DCM vs SCE 0.46, DMF vs SCE 0.45, SCE vs SHE: 0.244, SHE vs vacuum: 4.43 (N. G. Connelly, W. E. Geiger, Chemical Reviews 1996, 96, 877; V. V. Pavlishchuk, A. W. Addison, Inorganica Chimica Acta 2000, 298, 97). The half-wave potential E1/2vs Fc was obtained as an average value between maxima of cathodic and anodic potentials: E1/2 vs Fc=1/2([…]). The optical band gaps Eg opt=1240/λ was estimated from the edges of electronic absorption spectra in DCM and DMF solutions. ELUMO was calculated from the equation ELUMO=(E vs Fc/Fc^++(solvent vs SCE)+0.244+4.43. EHOMO calculated from the equation EHOMO=ELUMO[…].

[6] = Solubility in organic solvents
[7] = CHCl3, organic solvent or mixture, read-out: Solubility in CHCl3
[8] = DCM, organic solvent or mixture, read-out: Solubility in DCM
[9] = THF, organic solvent or mixture, read-out: Solubility in THF
[10] = organic solvent or mixture, methanol, sonicated, read-out: Solubility in Methanol

## CC(C)(C)c1ccc(C(C)(C)C)c(N2C(=O)c3ccc4c5c(ccc(c35)C2=O)C(=O)N(CP(=O)(O)O)C4=O)c1 [Compound V1264, N-(2,5-di-tert-butyl-phenyl)-N′-(methyl)-1,4,5,8-naphthalene tetracarboxylic diimide phosphonic acid]
[1]; UV/vis, 10^−4 M anhydrous dichloromethane
  Absorption in the visible region: no apparent absorption in the visible region
[1]; compared to bare ITO and ITO/SnO2 films
  Optical losses (UV-Vis transmittance) of SAM on ITO surface: neglectable optical losses
[2]
  Work function (WF): ~4.45 eV
[3]
  95% weight loss temperature: 356 °C
[4]
  Water contact angle (surface hydrophobicity): around 78.4 °
[5]
  EHOMO: −6.97 eV
  ELUMO: −3.81 eV
  λ: 392 nm
  E vs Fc/Fc^+: −1.34 V
  Eg^opt-sol: 3.16 eV
[5]; during the scans
  Voltammogram behaviour in solution: reversible reduction waves
[6]; [7]
  solubility: ≤ 7500 µg/mL
[6]; [8]
  solubility: ≤ 15000 µg/mL
[6]; [9]
  solubility: ≤ 6500 µg/mL
[6]; chlorobenzene, organic solvent or mixture, read-out: Solubility in Chlorobenzene
  solubility: ≤ 13000 µg/mL
[6]; toluene, organic solvent or mixture, read-out: Solubility in Toluene
  solubility: ≤ 800 µg/mL

## O=C1c2cc(Br)c3c4c(cc(Br)c(c24)C(=O)N1CP(=O)(O)O)C(=O)N(CP(=O)(O)O)C3=O [Compound V1486]
[5]
  EHOMO: −6.76 eV
  ELUMO: −3.86 eV
  λ: 426 nm
  E vs Fc/Fc^+: −1.26 V
  Eg^opt-sol: 2.90 eV
[6]; organic solvent or mixture, THF, sonicated, read-out: Solubility in THF
  solubility: ≤ 500 µg/mL
[6]; organic solvent or mixture, isopropanol, sonicated, read-out: Solubility in Isopropanol
  solubility: ≤ 500 µg/mL
[6]; [10]
  solubility: ≤ 700 µg/mL

## O=C1c2ccc3c4c(ccc(c24)C(=O)N1CP(=O)(O)O)C(=O)N(CP(=O)(O)O)C3=O [Compound V1612, N, N′-bi(methyl)-1,4,5,8-naphthalene tetracarboxylic diimide diphosphonic acid]
[5]
  EHOMO: −6.97 eV
  ELUMO: −3.9 eV
  λ: 403 nm
  E vs Fc/Fc^+: −1.17 V
  Eg^opt-sol: 3.07 eV
[6]; [10]
  solubility: ≤ 500 µg/mL

## CC(C)(C)c1ccc(C(C)(C)C)c(N2C(=O)c3ccc4c5c(ccc(c35)C2=O)C(=O)N(CCP(=O)(O)O)C4=O)c1 [Compound V1624, N-(2,5-di-tert-butyl-phenyl)-N′-(ethyl)-1,4,5,8-naphthalene tetracarboxylic diimide phosphonic acid]
[5]
  EHOMO: −7.11 eV
  ELUMO: −3.96 eV
  λ: 393 nm
  E vs Fc/Fc^+: −1.16 V
  Eg^opt-sol: 3.15 eV
[6]; [7]
  solubility: ≤ 5000 µg/mL
[6]; [8]
  solubility: ≤ 7000 µg/mL
[6]; [9]
  solubility: ≤ 1000 µg/mL

## O=C1c2ccc3c4c(ccc(c24)C(=O)N1CCP(=O)(O)O)C(=O)N(CCP(=O)(O)O)C3=O [Compound V1625, N, N′-bis(ethyl)-1,4,5,8-naphthalene tetracarboxylic diimide diphosphonic acid]
[5]
  EHOMO: −6.91 eV
  ELUMO: −3.79 eV
  λ: 397 nm
  E vs Fc/Fc^+: −1.32 V
  Eg^opt-sol: 3.12 eV
[6]; [10]
  solubility: ≤ 500 µg/mL

## CC(C)(C)c1ccc(C(C)(C)C)c(N2C(=O)c3ccc4c5c(ccc(c35)C2=O)C(=O)N(c2ccc(P(=O)(O)O)cc2)C4=O)c1 [Compound V1635]
[5]
  EHOMO: −6.98 eV
  ELUMO: −3.84 eV
  λ: 394 nm
  E vs Fc/Fc^+: −1.28 V
  Eg^opt-sol: 3.14 eV
[6]; [7]
  solubility: ≤ 15000 µg/mL
[6]; [8]
  solubility: ≤ 10000 µg/mL
